US20070134193A1, “Cosmetic and/or pharmaceutical preparations” (priority 2001, published 2007)

What was measured:
human fibroblasts = test: Cell protecting effect against UVA on human fibroblasts cultivated in vitro (MDA level, protein content); format: cell-based; conditions: UVA 365 nm, + vitamin E, concentration not given
Experimental: The lipoperoxides are degraded to malonaldialdehyde which will crosslink many biological molecules, such as proteins and nuclein bases (enzyme inhibition or mutagenesis).
Method: To carry out these tests, a defined culture medium (DMEM) containing the fibroblasts was inoculated with foetal calf serum and added to the plant extract (in the defined medium containing 10% foetal serum) 72 hours after inoculation. Incubation was carried out at 37° C./5% CO2.
After incubation for 48 hours at 37° C./5% CO2, the culture medium was replaced by saline solution (physioloigcal NaCl solution) and the fibroblasts were exposed to a dose of UVA (365 nm, 20 J/cm^2; tubes: MAZDA FLUOR TFWN40).
After the exposure to UVA, the MDA level (malonaldialdehyde level) in the supernatant sodium chloride solution was quantitatively determined by reaction with thiobarbituric acid. The protein content was determined by Bradford's method using a Coomassie Brilliant Blue color (Bradford, Analytical Biochem., 72; 248-254; 1976).

human keratinocytes = test: Cell protecting effect against UVB on human keratinocytes cultivated in vitro (number of keratinocytes, released LDH); format: cell-based; conditions: UVB 50 mJ/cm^2, 0.03%
Method: Method: the effect of UVB radiation was investigated in vitro on keratinocytes by determining the release of the cytoplasm enzyme LDH (lactate dehydrogenase). This enzyme serves as a marker for cell damage.
To carry out the test, a defined medium (DMEM) containing fetal calf serum was inoculated with the keratinocytes and added to the plant extract (diluted with saline solution) 72 hours after inoculation.
The keratinocytes were then exposed to a UVB dose (50 mJ/cm^2-tubes: DUKE FL40E).
After incubation for another day ay 37° C./5% CO2. the LDH content in the supernatant phase was determined. The LDH (lactate dehydrogenase) content was spectrophotometrically determined by determining the NADH content during the LDH-catalyzed conversion of pyruvate to lactate by Bonnekoh's method (Bonnekoh B. et al.; Dermatol. Research; 282; 325-329; 1990).
The number of adhering keratinocytes was determined by a DNA assay based on the fluorescence measurement of fluorochromium that binds to cellular DNA using Desaulniers' method (Desaulniers D. et al.; Toxicol. in vitro; 12; 409-422; 1998) and a particle counter. Another test was carried out for comparison using a standard anti-inflammatory, acetyl salicyclic acid.

vitamin E
MDA level (human fibroblasts; 20 J/cm^2): 31(4) % versus control | Protein content (human fibroblasts): 102(11) % versus control

CC(=O)Oc1ccccc1C(=O)O [acetylsalicylic acid]
Content of LDH released (human keratinocytes; UVB alone = 100): 3(2) | Number of keratinocytes (human keratinocytes; control without UV = 100): 76(5)
